We go through four compounds from paper PMC11360180, “Enhancement of Antimicrobial Function by L/D-Lysine Substitution on a Novel Broad-Spectrum Antimicrobial Peptide, Phylloseptin-TO2: A Structure-Related Activity Research Study” (Pharmaceutics, 2024).

Where a SMILES comes first, the peptide text is derived from it. Where no end group is shown, it is not given here. [ ]: non-standard residue; d: D form.

In experiment [1] the test system is S. aureus (ATCC 6538) biofilm. The format is cell-based, Staphylococcus aureus. Conditions: ATCC 6538, 24 h. The procedure:
To test the anti-biofilm ability of PSTO2 and its analogues, three types of microorganisms (S. aureus ATCC® 6538, E. coli ATCC® 8739, and MRSA NCTC® 12493) were chosen. Tryptic soy broth (TSB) and Lysogeny broth (LB) were used to culture microorganisms. The peptide was dissolved in an autoclaved PBS solution and diluted into concentrations ranging from 51,200 µM to 100 µM. One µL of peptide solution of each concentration was added into a 96-well plate with 100 µL bacterium at 5 × 10^5 CFU/mL. The plate was incubated at 37 °C for 24 h, with shaking at 200 rpm. After overnight incubation, the planktonic bacteria were washed up. Then, 100 µL of methanol was used to fix the biofilms onto the bottom, and 100 µL of 0.1% crystal violet solution (Sigma-Aldrich, Gillingham, UK) was added to each well to stain the biofilms. After drying, 160 µL of acetic acid (30% in deionised water, Sigma-Aldrich, UK) was added to each well to dissolve the shaded parts. The absorbance was detected with the Synergy HT plate reader at λ = 595 nm.
For the MBEC assay, 100 µL of the bacterium of 5 × 10^5 CFU/mL was transferred into an empty 96-well plate, and the plate was incubated at 37 °C for 24 h to obtain the biofilms primarily. Then, the peptide solution from 512 µM to 1 µM was transferred into a corresponding well, followed by 24 h incubation at 37 °C, with shaking at 200 rpm. After this, the plate was handled using the identical method to the plate in the MBIC assay, and the absorbance of each well was detected with the Synergy HT plate reader at λ = 595 nm. The minimum concentration at which the peptide can eradicate the existing biofilm was recorded as the MBEC value.

In experiment [2] the test system is S. aureus (ATCC 6538). The format is cell-based, Staphylococcus aureus. The conditions noted are these: ATCC 6538, 24 h. An excerpt:
Seven microorganism strains were used to preliminarily evaluate the antimicrobial activity of PSTO2 and its analogues, including Staphylococcus aureus (S. aureus) (ATCC® 6538), methicillin-resistant Staphylococcus aureus (MRSA) (NCTC® 12493), Enterococcus faecalis (E. faecalis) (NCTC® 12697), E. coli (ATCC® 8739), Klebsiella pneumonia (K. pneumonia) (ATCC® 43816), Pseudomonas aeruginosa (P. aeruginosa) (ATCC® CRM 9027), Acinetobacter baumanni (A. baumanni) (BAA® 747), and Candida albicans (C. albicans) (ATCC® 10231). In this study, the strains were cultured in Mueller–Hinton broth (MHB), nutrient broth (NB), and yeast–peptone–dextrose broth (YPD-B) correspondingly at 37 °C, with shaking at 120 rpm. Each peptide was dissolved from 128 μM to 1 μM and mixed with the bacterium at 5 × 10^5 CFU/mL. […]
After being incubated for 24 h, a Synergy HT plate reader (Bio-Tek, Shoreline, WA, USA) was used to detect the absorbance of each well in the 96-well plate at λ = 550 nm. The concentration at which no visible turbidity could be recorded was the MIC value. […] The plate was checked the next day for colony formation, and the lowest concentration at which no colony growing was recorded as an MBC value. […]

With `CC[C@H](C)[C@H](NC(=O)[C@H](C)NC(=O)[C@@H](CCCCN)NC(=O)[C@@H]1CCCN1C(=O)[C@@H](NC(=O)[C@H](CC(C)C)NC(=O)[C@H](CO)NC(=O)[C@H](CC(C)C)NC(=O)[C@@H](N)Cc1ccccc1)[C@@H](C)CC)C(=O)N[C@@H](CCCCN)C(=O)N[C@@H](C)C(=O)N[C@H](C(=O)N[C@@H](CCCCN)C(=O)N[C@@H](C)C(=O)N[C@@H](CC(C)C)C(=O)N[C@@H](C)C(=O)N[C@@H](CCCCN)C(=O)N[C@H](CCCCN)C(=O)N[C@@H](CC(C)C)C(N)=O)C(C)C` [SR2D10] (H-FLSLIP[dK]AIKAVKALAK[dK]L-NH2), in experiment [1], the MBEC turned out to be 32 µM and the MBIC was 4 µM.
In the same order, the values of `CC[C@H](C)[C@H](NC(=O)[C@H](C)NC(=O)[C@@H](CCCCN)NC(=O)[C@@H]1CCCN1C(=O)[C@@H](NC(=O)[C@H](CC(C)C)NC(=O)[C@H](CO)NC(=O)[C@H](CC(C)C)NC(=O)[C@@H](N)Cc1ccccc1)[C@@H](C)CC)C(=O)N[C@@H](CCCCN)C(=O)N[C@@H](C)C(=O)N[C@H](C(=O)N[C@@H](CO)C(=O)N[C@@H](C)C(=O)N[C@@H](CC(C)C)C(=O)N[C@@H](C)C(=O)N[C@@H](CCCCN)C(=O)N[C@@H](CCCCN)C(=O)N[C@@H](CC(C)C)C(N)=O)C(C)C` [SRD7] (H-FLSLIP[dK]AIKAVSALAKKL-NH2) are 32 µM and 2 µM.
One may read the MBC as the smallest concentration meeting the test's criterion for killing. Broadly, the MIC is the least concentration at which growth counts as inhibited. In the case of FLSLIPKAIKAVKALAKKL-NH2 [SR2], in experiment [2], the MBC was 2 µM and the minimal inhibitory concentration (MIC) was 2 µM. In addition, in experiment [1], the MBEC was 16 µM and the MBIC is 2 µM.
As for FLSLIPKAIKAVSALAKKL-NH2 [SR], the MBEC in experiment [1] came to 16 µM.
